From US11214594B2, “Antimicrobial peptide having synergistic antibacterial effect with antibiotics on multidrug resistant bacteria, and use thereof” (priority 2016, dated 2022)
In brackets after ≈: the same amount, converted by molar mass. Where a SMILES comes first, the peptide text is derived from it.

Columns and labels:
S. epidermidis = assay: microbe, parasite or virus in culture; format: cell-based, Staphylococcus epidermidis
Outline: (§1)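 Peptides were serially diluted twofold in Mueller-Hinton medium and combined 1:1 with bacterial suspensions prepared at 2×10^6 CFU. Readout was the minimal inhibitory concentration, i.e. the lowest concentration with no growth.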

A. baumannii = assay: microbe, parasite or virus in culture; format: cell-based, Acinetobacter baumannii
Outline: as §1

MDRAB 12035 [1] = assay: microbe, parasite or virus in culture; format: cell-based, Acinetobacter baumannii
Outline: as §1

MDRST 8009 = format: cell-based, Salmonella typhimurium; settings: agent alone
Outline: as §1

MRSA 3114 = format: cell-based, Staphylococcus aureus; settings: 3114
Outline: as §1

MRSA 3126 = format: cell-based, Staphylococcus aureus; settings: 3126
Outline: as §1

MDRPA 2003 = format: cell-based, Pseudomonas aeruginosa
Outline: as §1

MDRPA 2002 = format: cell-based, Pseudomonas aeruginosa
Outline: as §1

MDREC 1238 = format: cell-based, Escherichia coli
Outline: as §1

P. aeruginosa = assay: microbe, parasite or virus in culture; format: cell-based, Pseudomonas aeruginosa
Outline: as §1

MDRAB 12035 [2] = assay: MIC of antibiotic during combined treatment with antimicrobial peptide; format: cell-based, Acinetobacter baumannii
Outline: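 Strains in MH medium at 2×10^6 CFU/ml were mixed with peptide diluted stepwise (2:1) from its MIC, then antibiotic dilutions in MH medium were added to give the antibiotic MIC. The reversed set-up, peptide titrated against fixed antibiotic, gave the peptide MIC.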

S. typhimurium = assay: microbe, parasite or virus in culture; format: cell-based, Salmonella typhimurium
Outline: as §1

[3] = system: multi-drug resistant bacteria; assay: MIC, summary statements for multi-drug resistant bacteria; format: cell-based
Procedure: For the antibacterial activity, a minimal inhibitory concentration (MIC) of a peptide in which fungus bodies were not split in an MH medium with sufficient nutrients was measured.
Specifically, the strains described in the following [Table 2] were purchased and diluted with an MH medium such that the number of bacteria was 2×10^6 colony-forming units (CFUs), 100 μl of each of the diluted strains was aliquoted into a 96-well microtiter plate, and then 100 μl of a peptide solution diluted with the MH medium (solution diluted stepwise at 2: 1) was added to each well.

[4] = peptide treatment concentration 1 μg/ml
[5] = peptide treatment concentration 2 μg/ml
[6] = peptide treatment concentration 4 μg/ml
[7] = peptide treatment concentration 6 μg/ml
[8] = peptide treatment concentration 8 μg/ml
[9] = peptide treatment concentration 16 μg/ml
[10] = peptide treatment concentration 32 μg/ml
[11] = peptide treatment concentration 64 μg/ml

SMILES: CC[C@H](C)[C@H](NC(=O)[C@H](CCCCN)NC(=O)[C@H](Cc1c[nH]c2ccccc12)NC(=O)[C@@H](N)CCCNC(=N)N)C(=O)N[C@@H](Cc1ccccc1)C(=O)N[C@@H](CCCCN)C(=O)N[C@@H](CCCCN)C(=O)N[C@H](C(=O)N1CCC[C@H]1C(=O)N[C@@H](CCCCN)C(=O)N[C@@H](CC(C)C)C(=O)N[C@@H](CC(C)C)C(=O)N[C@@H](Cc1c[nH]cn1)C(=O)N[C@@H](CCC(=O)O)C(=O)N[C@@H](C)C(=O)N[C@@H](CCCCN)C(=O)N[C@@H](CCCCN)C(=O)N[C@@H](Cc1c[nH]c2ccccc12)C(N)=O)[C@@H](C)CC [PapMA-13, RWK IFK KIP KLL HEA KKW-NH2] (H-RWKIFKKIPKLLHEAKKW-NH2; N-terminus assumed)
- Minimal inhibitory concentration MIC (S. epidermidis): >128 µg/mL
- Minimal inhibitory concentration MIC (A. baumannii): 16 µg/mL (≈ 6.81 µM)
- Peptide MIC, peptide alone (A. baumannii): 16 µg/mL
- Antibacterial activity relative to PapMA-1 (A. baumannii; A. baumannii and S. typhimurium): at least twice as high
- Minimal inhibitory concentration MIC (MDRAB 12035 [1]): 16 µg/mL (≈ 6.81 µM)
- Peptide MIC, peptide alone (MDRAB 12035 [1]): 16 µg/mL
- Minimal inhibitory concentration MIC (MDRST 8009): 16 µg/mL (≈ 6.81 µM)
- Minimal inhibitory concentration MIC (MRSA 3114): >128 µg/mL
- Minimal inhibitory concentration MIC (MRSA 3126): >128 µg/mL
- Minimal inhibitory concentration MIC (MDRPA 2003): 128 µg/mL (≈ 54.5 µM)
- Minimal inhibitory concentration MIC (MDRPA 2002): 128 µg/mL (≈ 54.5 µM)
- Minimal inhibitory concentration MIC (MDREC 1238): 16 µg/mL (≈ 6.81 µM)
- Minimal inhibitory concentration MIC (P. aeruginosa): 128 µg/mL (≈ 54.5 µM)
- Erythromycin MIC during combined treatment with peptide (MDRAB 12035 [2]; [4]): 16 µg/mL
- Linezolid MIC during combined treatment with peptide (MDRAB 12035 [2]; [4]): 128 µg/mL
- Vancomycin MIC during combined treatment with peptide (MDRAB 12035 [2]; [4]): 128 µg/mL
- Erythromycin MIC during combined treatment with peptide (MDRAB 12035 [2]; [5]): 8 µg/mL
- Linezolid MIC during combined treatment with peptide (MDRAB 12035 [2]; [5]): 32 µg/mL
- Vancomycin MIC during combined treatment with peptide (MDRAB 12035 [2]; [5]): 64 µg/mL
- Erythromycin MIC during combined treatment with peptide (MDRAB 12035 [2]; [6]): 4 µg/mL
- Linezolid MIC during combined treatment with peptide (MDRAB 12035 [2]; [6]): 16 µg/mL
- Vancomycin MIC during combined treatment with peptide (MDRAB 12035 [2]; [6]): 16 µg/mL
- Erythromycin MIC during combined treatment with peptide (MDRAB 12035 [2]; [7]): 1 µg/mL
- Linezolid MIC during combined treatment with peptide (MDRAB 12035 [2]; [7]): 8 µg/mL
- Vancomycin MIC during combined treatment with peptide (MDRAB 12035 [2]; [7]): 2 µg/mL
- Erythromycin MIC during combined treatment with peptide (MDRAB 12035 [2]; [8]): 0.5 µg/mL
- Linezolid MIC during combined treatment with peptide (MDRAB 12035 [2]; [8]): 2 µg/mL
- Vancomycin MIC during combined treatment with peptide (MDRAB 12035 [2]; [8]): 1 µg/mL
- Erythromycin MIC during combined treatment with peptide (MDRAB 12035 [2]; [9]): 0 µg/mL
- Linezolid MIC during combined treatment with peptide (MDRAB 12035 [2]; [9]): 0 µg/mL
- Vancomycin MIC during combined treatment with peptide (MDRAB 12035 [2]; [9]): 0 µg/mL
- Erythromycin MIC during combined treatment with peptide (MDRAB 12035 [2]; [10]): 0 µg/mL
- Linezolid MIC during combined treatment with peptide (MDRAB 12035 [2]; [10]): 0 µg/mL
- Vancomycin MIC during combined treatment with peptide (MDRAB 12035 [2]; [10]): 0 µg/mL
- Erythromycin MIC during combined treatment with peptide (MDRAB 12035 [2]; [11]): 0 µg/mL
- Linezolid MIC during combined treatment with peptide (MDRAB 12035 [2]; [11]): 0 µg/mL
- Vancomycin MIC during combined treatment with peptide (MDRAB 12035 [2]; [11]): 0 µg/mL
- Minimal inhibitory concentration MIC (S. typhimurium): 16 µg/mL (≈ 6.81 µM)
- Antibacterial activity relative to PapMA-1 [3]: twice to four times higher
